Measurements taken from US20220305012A1, “L[…] TREATING SLEEP ISSUES” (EISAI R&D MANAGEMENT CO., LTD., priority 2019, published 2022).

Tests used:
[1] = test system: Subjects Having Insomnia Disorder; assay: Example 1: Quality of Sleep rating (scale 1 to 9); format: in vivo, human; settings: for Quality of Sleep score, Mean (SD): Baseline; for Quality of Sleep score, Treatment difference (vs placebo): change from baseline at Month 6
From the text: (§1) In some embodiments, sleep diaries were used to assess sleep parameters reported by subjects (i.e., subjective assessments) including subjective sleep onset latency (sSOL), subjective sleep efficiency (sSE), subjective WASO (sWASO), and subjective total sleep time (sTST). Subjects were instructed to complete the Sleep Diary developed based on the consensus Sleep Diary as described in Carney et al., “The consensus sleep diary: standardizing prospective sleep self-monitoring,” Sleep 2012; 35(2):287-302. In some embodiments, the Sleep Diary was used to assess the subject's global perception of quality of sleep on the previous night with the following question: “How would you rate the quality of your sleep last night?” Subjects rated the quality of their sleep on a scale from 1 to 9, with 1 being extremely poor and 9 being extremely good. In some embodiments, the Sleep Diary was used to assess subjective ratings of morning sleepiness with the following question: “How alert/sleepy do you feel this morning?” Subjects rated their sleepiness/alertness level on a Likert scale from 1 to 9, with 1 being extremely sleepy and 9 being extremely alert.
Treatment period 1 began with the first dose of randomized study medication (placebo, 5 mg of lemborexant, or 10 mg of lemborexant). Subjects completed sleep diaries daily in the morning, within one hour of waketime. The subjects were assessed by a clinician one month, two months, three months, and six months after initiation of Treatment period 1.

[2] = test system: Subjects Having Insomnia Disorder; assay: Example 2: sleep efficiency (SE), polysomnography; format: in vivo, human
Method: In some embodiments, a sleep parameter is determined objectively using polysomnography. Polysomnography is the monitoring of multiple electrophysiological parameters during sleep and generally includes measurement of EEG activity, electro-oculographic activity and electromyographic activity, as well as other measurements.
SE—sleep efficiency: proportion of time spent asleep per time in bed, calculated as TST/interval from lights off until lights on.
(§2) The treatment period lasted for 31 days. Subjects were randomized in a double-blind manner and received placebo, a tablet containing 5 mg of lemborexant, a tablet containing 10 mg of lemborexant, or a tablet containing 6.25 mg of zolpidem ER.
Within 5 minutes of the subject's mean habitual bedtime, study drug was administered and an overnight polysomnogram recording was initiated. At completion of the recording the following morning (Day 2), postural stability and cognitive performance were assessed. On the Day 2 evening, subjects returned to the clinic and a blood sample was collected before administering study drug, and then study drug was administered within 5 minutes of the subject's mean habitual bedtime. Again, a polysomnogram recording was initiated. The next morning (Day 3), postural stability and cognitive performance were assessed. A blood sample was also collected.
On Day 29, subjects returned to the clinic. Study drug was administered within 5 minutes of the subject's mean habitual bedtime and a polysomnogram recording was conducted. On the following morning (Day 30), postural stability and cognitive performance were assessed. After 1.5 hours of waketime, subjects rated their morning sleepiness level.
On the evening of Day 30, subjects returned to the clinic. A pre-dose blood sample was collected and study drug was again administered within 5 minutes of the subject's mean habitual bedtime. A polysomnogram recording was initiated. The following morning (Day 31), postural stability and cognitive performance were assessed and a blood sample was obtained. The ISI, FSS, EQ-5D-3L and PGI-Insomnia were administered. Blood and urine samples were collected for routine safety assessment. An electrocardiogram was performed, and vital signs and weight were assessed. The eC-SSRS was then administered to the subject. At 1.5 hours after waketime, subjects rated their morning sleepiness level.
One key secondary endpoint was to determine the change from baseline for mean sleep efficiency on Days 29 and 30 after administration of 5 mg or 10 mg of lemborexant, compared to placebo.

[3] = test system: Subjects Having Insomnia Disorder; assay: Example 2: subjective sleep efficiency (sSE), sleep diary; format: in vivo, human
From the text: As used herein, the term “subjective sleep efficiency”, abbreviated as “sSE”, means the proportion of sTST per subjective time spent in bed, calculated as the interval from the time the subject reports attempting to sleep until the time the subject stopped trying to sleep for the night (operationalized as the time the subject got out of bed for the day), and time spent asleep derived from subjective time spent in bed minus sWASO. As used herein, an “improvement of sleep efficiency in Subjective Sleep Efficiency (sSE)” means an increase in sleep efficiency in Subjective Sleep Efficiency (sSE).
as §1
sSE—subjective sleep efficiency: proportion of sTST per subjective time spent in bed, calculated as the interval from the time the subject reports attempting to sleep until the time the subject stopped trying to sleep for the night (operationalized as the time the subject got out of bed for the day), and time spent asleep derived from subjective time in bed minus sWASO.
as §2
Once home, the subject ingested study drug each night prior to bedtime and completed their sleep diary within 1 hour of waketime.

[4] = test system: Subjects Having Insomnia Disorder; assay: Example 2: return to sleep latency; format: in vivo, human
[5] = test system: Subjects Having Insomnia Disorder; assay: Example 2: duration of long awakenings; format: in vivo, human; settings: both doses; relative to placebo, compared with zolpidem ER (FIG. 12)
[6] = test system: Subjects Having Insomnia Disorder; assay: Example 3: proportion of sSOL responders (pooled Examples 1 and 2); format: in vivo, human
Method: The data collected in studies described in Example 1 and Example 2 were pooled and the response of each subject was analyzed.

[7] = test system: Subjects Having Insomnia Disorder; assay: Example 2: auditory awakening threshold
[8] = First 7 Nights of Treatment, Lemborexant 5 mg
[9] = First 7 Nights of Treatment, Lemborexant 10 mg
[10] = Last 7 Nights of Treatment, Lemborexant 5 mg
[11] = Last 7 Nights of Treatment, Lemborexant 10 mg
[12] = First 7 Days, Lemborexant 10 mg

## Cc1ncc(OC[C@@]2(c3cccc(F)c3)C[C@H]2C(=O)Nc2ccc(F)cn2)c(C)n1 [Lemborexant, (1R,2S)-2-(((2,4-dimethylpyrimidin-5-yl)oxy)methyl)-2-(3-fluorophenyl)-N-(5-fluoropyridin-2-yl)cyclopropanecarboxamide]
[1]; 5 mg
  Quality of Sleep score, Mean (SD): 4.0 (1.3)
  Quality of Sleep score, Treatment difference (vs placebo): 0.28
[1]; 10 mg
  Quality of Sleep score, Mean (SD): 4.0 (1.4)
  Quality of Sleep score, Treatment difference (vs placebo): 0.32
[1]; at 6 months (Table 8)
  quality of sleep compared with placebo: significantly improved
[2]; Days 1/2, Lemborexant 5 mg
  Sleep Efficiency, Change from Study Baseline, Mean (SD): 13.60 (9.725)
  Sleep Efficiency, Change from Study Baseline, Median: 12.40
  Sleep Efficiency, Mean (SD): 81.96 (8.384)
  Sleep Efficiency, Median: 83.62
[2]; Days 1/2, Lemborexant 10 mg
  Sleep Efficiency, Change from Study Baseline, Mean (SD): 16.48 (9.623)
  Sleep Efficiency, Change from Study Baseline, Median: 15.47
  Sleep Efficiency, Mean (SD): 84.33 (7.608)
  Sleep Efficiency, Median: 85.73
[2]; Days 29/30, Lemborexant 5 mg
  Sleep Efficiency, Change from Study Baseline, LSM treatment difference: Lemborexant-Zolpidem: 3.92 (0.705)
  Sleep Efficiency, Change from Study Baseline, Mean (SD): 12.93 (9.741)
  Sleep Efficiency, Change from Study Baseline, Median: 11.85
  Sleep Efficiency, Mean (SD): 81.29 (8.800)
  Sleep Efficiency, Median: 83.26
[2]; Days 29/30, Lemborexant 10 mg
  Sleep Efficiency, Change from Study Baseline, LSM treatment difference: Lemborexant-Zolpidem: 4.88 (0.702)
  Sleep Efficiency, Change from Study Baseline, Mean (SD): 14.09 (10.514)
  Sleep Efficiency, Change from Study Baseline, Median: 13.57
  Sleep Efficiency, Mean (SD): 81.99 (8.801)
  Sleep Efficiency, Median: 83.52
[2]; all lemborexant treatment groups, relative to baseline, placebo and zolpidem treatment groups (Table 14)
  mean sleep efficiency: increased
[3]; 10 mg, relative to baseline, placebo and zolpidem treatment groups (Table 19)
  mean subjective sleep efficiency: increased
[3]; [8]
  Subjective Sleep Efficiency, Change from Study Baseline, Mean (SD): 10.56 (12.296)
  Subjective Sleep Efficiency, Mean (SD): 65.96 (18.203)
  Subjective Sleep Efficiency, Model-adjusted change from baseline: 10.74
[3]; [9]
  Subjective Sleep Efficiency, Change from Study Baseline, Mean (SD): 13.97 (14.188)
  Subjective Sleep Efficiency, Mean (SD): 68.10 (18.356)
  Subjective Sleep Efficiency, Model-adjusted change from baseline: 13.81
[3]; [10]
  Subjective Sleep Efficiency, Change from Study Baseline, Mean (SD): 12.92 (13.884)
  Subjective Sleep Efficiency, Mean (SD): 68.19 (19.251)
  Subjective Sleep Efficiency, Model-adjusted change from baseline: 13.29
[3]; [11]
  Subjective Sleep Efficiency, Change from Study Baseline, Mean (SD): 16.12 (16.3000)
  Subjective Sleep Efficiency, Mean (SD): 69.92 (19.098)
  Subjective Sleep Efficiency, Model-adjusted change from baseline: 15.87
[4]; Lemborexant 5 mg
  Return to Sleep Latency, LSM - Difference vs. Placebo: -22.5 min
  Return to Sleep Latency, Mean (SD) change from baseline: -22.8 min
  Return to Sleep Latency, Postdose: 18.1 min
[4]; Lemborexant 10 mg
  Return to Sleep Latency, LSM - Difference vs. Placebo: -28.7 min
  Return to Sleep Latency, Mean (SD) change from baseline: -28.7 min
  Return to Sleep Latency, Postdose: 12.1 min
[4]; both doses, vs placebo and zolpidem (Table 28)
  return to sleep latency: greater reduction in return to sleep latency than treatment with placebo and zolpidem
[5]
  length of long awakenings: greater reduction in the length of long awakenings than treatment with zolpidem ER
[6]; First 7 Days, Lemborexant 5 mg
  Subjective Sleep Onset Latency Responder, No, (%): (86.3) %
  Subjective Sleep Onset Latency Responder, Yes, (%): (12.4) %
  Subjective Sleep Onset Latency Responders, Difference of proportion vs. Placebo: 7.80
[6]; [12]
  Subjective Sleep Onset Latency Responder, No, (%): (86.2) %
  Subjective Sleep Onset Latency Responder, Yes, (%): (12.6) %
  Subjective Sleep Onset Latency Responders, Difference of proportion vs. Placebo: 7.80
[6]; Month 1, Lemborexant 5 mg
  Subjective Sleep Onset Latency Responder, No, (%): (76.8) %
  Subjective Sleep Onset Latency Responder, Yes, (%): (18.4) %
  Subjective Sleep Onset Latency Responders, Difference of proportion vs. Placebo: 8.28
[6]; Month 1, Lemborexant 10 mg
  Subjective Sleep Onset Latency Responder, No, (%): (75.8) %
  Subjective Sleep Onset Latency Responder, Yes, (%): (21.0) %
  Subjective Sleep Onset Latency Responders, Difference of proportion vs. Placebo: 11.14
[6]; both doses, first 7 days and end of month 1, responder: sSOL of 20 or less minutes provided baseline sSOL at least 30 minutes (Table 30)
  proportion of sSOL responders compared with placebo: statistically significantly superior
[7]; Lemborexant 5 mg
  Auditory Awakening Threshold, LSM - Difference vs. Placebo: 1.7
  Auditory Awakening Threshold, Mean (SD): 51.8
  Auditory Awakening Threshold, Median: 50.0
[7]; Lemborexant 10 mg
  Auditory Awakening Threshold, LSM - Difference vs. Placebo: −0.9
  Auditory Awakening Threshold, Mean (SD): 51.7
  Auditory Awakening Threshold, Median: 52.5
[7]; Table 27
  ability to be awakened by an external stimulus (auditory awakening threshold): did not interfere with a subject's ability to be awakened by an external stimulus
